Laboratory results as given in PubChem BioAssay (NCI).
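Briefly, cells in 96-well plates were exposed to five compound concentrations for 48 h, and endpoints were estimated by linear interpolation. TGI marks complete inhibition of growth.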

Legend:
Experiment in all cases: growth of human tumour cells (NCI), 48 h
[1] = system: SW-620 colon
[2] = system: U251 CNS
[3] = system: MOLT-4 leukemia
[4] = system: RXF 393 renal
[5] = system: HT29 colon
[6] = system: IGROV1 ovarian
[7] = system: SK-OV-3 ovarian
[8] = system: KM12 colon
[9] = system: NCI/ADR-RES ovarian
[10] = system: HCT-116 colon

Row | SMILES | TGI [1] [µM] | TGI [2] [µM] | TGI [3] [µM] | TGI [4] [µM] | TGI [5] [µM] | TGI [6] [µM] | TGI [7] [µM] | TGI [8] [µM] | TGI [9] [µM] | TGI [10] [µM]
1 | CCOP(=O)(OCC)/C(F)=C/c1ccc(F)cc1 | > 100 | > 100 | > 100 | > 100 | > 100 | > 100 | > 100 | > 100 | > 100 | > 100
2 | CC(=O)O[C@H]1CC[C@@]2(C)C(=CC[C@@H]3[C@@H]2CC[C@]2(C)C(=O)/C(=C\c4ccccc4)C[C@@H]32)C1 | > 100 | > 100 | > 100 | > 100 | > 100 | > 100 | > 100 | > 100 | > 100 | > 100
3 | COC1=C(OC)C(=O)c2cc(C)c(=O)c(C)cc2C1=O | 20.7 | 31 | 15.6 | 29.4 | 50.5 | 33.2 | 41.8 | 36.6 | 39.4 | 28.9
4 | CC(=O)C1=C(C)N2C(=NC3=C(CCc4ccccc43)C2c2ccc(Cl)cc2)S1 (stereo unspecified) | > 100 | > 100 | 55.3 | > 100 | > 100 | > 100 | > 100 | > 100 | > 100 | > 100
5 | CCOC(=O)c1nc2ccccc2nc1Oc1ccc(F)cc1 | > 100 | > 100 | – | > 100 | > 100 | > 100 | > 100 | > 100 | > 100 | > 100
6 | O=C1C(CN2CCCC2)CCC1CN1CCCC1 (stereo unspecified) | 11 | > 100 | 39.9 | 37.2 | 40.7 | > 82.3 | > 100 | > 100 | 56.8 | 32.6
7 | Cn1c2ccccc2n2c3ccccc3c3nnc(N)c-3c12 | > 100 | 11.7 | > 100 | > 87.6 | > 100 | > 100 | > 100 | > 100 | > 100 | > 100
8 | N#Cc1nc(CCC(C(=O)O)N2C(=O)c3ccccc3C2=O)oc1N (stereo unspecified) | > 100 | > 100 | > 100 | > 100 | > 100 | > 100 | > 100 | > 100 | > 100 | –
9 | N#CC(C#N)=CNC(=S)Nc1ccc(S(=O)(=O)Nc2nccs2)cc1 | > 100 | > 100 | > 100 | > 100 | > 100 | > 100 | > 100 | > 100 | > 100 | > 100
10 | C[C@@H](NC(=O)Nc1cccc(C(=O)Nc2cc(C(C)(C)C)ccc2C(=O)O)n1)c1ccccc1 | > 100 | 37.8 | > 100 | 38.5 | > 100 | > 100 | > 100 | > 100 | > 100 | 44.1
11 | c1ccc2sc(C3(N4CCCCCC4)CCCCC3)cc2c1 | 36.6 | 35 | 31.5 | 33.4 | 36.8 | > 100 | > 100 | 31.8 | 55.2 | 52.1
12 | C[C@H]1CC(=O)C[C@@H]2CC[C@@H]3[C@H](CC[C@]4(C)C(OC(=O)c5cccc6c(=O)c7ccccc7[nH]c56)CC[C@@H]34)[C@]21C (stereo partly specified) | > 100 | > 100 | 30.2 | > 100 | > 100 | > 100 | > 100 | > 100 | 61 | > 100
13 | CC(=O)OCC1OC(NC(=S)Nn2c(-c3ccccc3)nc3ccccc3c2=O)C(OC(C)=O)C(OC(C)=O)C1OC(C)=O (stereo unspecified) | > 100 | > 100 | > 100 | > 100 | > 100 | > 100 | > 100 | > 100 | > 100 | > 100
14 | CCOC(=O)c1sc(N)nc1N1CCCC1 | > 100 | > 100 | > 100 | > 100 | > 100 | > 100 | > 100 | > 100 | > 100 | > 100
15 | NC(Cc1c2ccccc2cc2ccccc12)C(=O)O (stereo unspecified) | > 100 | > 100 | 94.4 | > 100 | > 100 | > 100 | > 100 | > 100 | > 100 | > 100
16 | CCOC(=O)c1cn2c(n1)sc1cc([N+](=O)[O-])ccc12 | > 100 | > 100 | > 100 | > 100 | > 100 | > 100 | > 100 | > 100 | > 100 | > 100
17 | COc1nc2c(c(=O)[nH]1)N=C(c1ccc([N+](=O)[O-])cc1)CC(c1ccccc1)N2 (stereo unspecified) | > 100 | > 100 | > 100 | > 100 | > 100 | > 100 | – | > 100 | > 100 | > 100
18 | COc1ccc2nc3cc(Cl)ccc3c(NCCCN(C)CCCNc3ccc4ncn5c6ccccc6c(=O)c3c45)c2c1 | > 25 | 1.63 | > 5.72 | 1.14 | 0.69 | 4.37 | 6.04 | 4.99 | > 14.1 | 4.86
19 | C(#C[C@@]12CCC[C@@H]1NCO2)c1ccc2c(c1)OCO2 | > 100 | > 100 | 67.7 | > 100 | > 100 | > 100 | > 100 | > 100 | > 100 | –
20 | C/C(=C/C(=O)N(C)c1ccccc1Cl)O[Si](C(C)C)(C(C)C)C(C)C | 38.9 | 38.7 | > 100 | 34.5 | 34 | 59.7 | > 100 | > 100 | 39.6 | 34.2
21 | O=c1oc2cc(O)ccc2c(O)c1C(c1ccc(/C=C/c2ccccc2)cc1)c1c(O)c2ccc(O)cc2oc1=O | > 100 | > 100 | 64.1 | > 100 | > 100 | > 100 | > 100 | > 100 | > 100 | > 100
